Test results reported in publication PMC12040169 (PLOS Biology, 2025).

Columns and labels:
[1] = system: T1, CTL2-GFP (C. trachomatis L2/434/Bu, GFP-expressing); experiment: microbe, parasite or virus in culture; parameters: Intracellular C. trachomatis growth in HeLa cells, bulk GFP fluorescence relative to DMSO; details: Chlamydia trachomatis, HeLa, 28.5 h; bulk GFP, mean of 2; read-out: % of control remaining
T1 construct: L2/434/Bu, GFP-expressing
Procedure: MICs were calculated as described above.

in vitro = experiment: in vitro; parameters: Viability of infected HeLa host cells, resazurin conversion, bulk resorufin fluorescence relative to DMSO; details: human, hela cells; bulk resorufin, mean of 2
[2] = system: T2, C. trachomatis L2/434/Bu expressing GFP (CTL2-GFP); experiment: microbe, parasite or virus in culture; parameters: C. trachomatis total inclusion area by high-content imaging, normalised to DMSO; details: Chlamydia trachomatis, HeLa, 28.5 h; total inclusion area; read-out: % of control remaining
T2 construct: L2/434/Bu GFP intracellular growth in HeLa cells
Method in brief: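 After bulk GFP and resorufin reads, fixed cells were Hoechst-stained and imaged to count chlamydial inclusions and host nuclei. Total inclusion area and number tracked bacterial growth, and nuclei number tracked host viability. MICs were derived, and 36,785 drug-like molecules were screened this way.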

Compound	activity at 1 µM [1]	activity at 5 µM [1]	activity at 10 µM [1]	viability at 28.5 h, 1 µM (in vitro)	viability at 28.5 h, 5 µM (in vitro)	viability at 28.5 h, 10 µM (in vitro)	activity at 1 µM [2]	activity at 5 µM [2]	activity at 10 µM [2]
C1=C(CCNCCc2ccccc2)c2ccccc2C12CCCC2 [CBK024723]	137%	49.2%	3.86%	96.5%	89.8%	97.2%	112%	42.8%	0.759%
CN1CCCN(c2cc(C(F)(F)F)c3scc(C(=O)NCc4cccc(F)c4F)c3n2)CC1 [CBK036386T]	124%	97.2%	57.7%	99%	101%	101%	69.4%	59.6%	46.9%
Cc1ccc2[nH]c3c(c2c1)CCOC31CCN(Cc2ccccc2-c2ccccc2)CC1 [CBK039915]	69.3%	33.8%	27.9%	99.1%	93.6%	100%	27.9%	15.9%	7.2%
Fc1cc(CN2CCC3(CC2)OCCc2c3[nH]c3ccc(Br)cc23)cc(F)c1F [CBK039943]	121%	66.6%	46.8%	98.2%	92.1%	90.4%	102%	32.3%	21.4%
CC(C)c1ccc(S(=O)(=O)Nc2cccc(SC(F)(F)F)c2)cc1 [CBK044581]	113%	76%	82.6%	96.5%	95.7%	103%	116%	69.4%	80.6%
CCc1nnc(NS(=O)(=O)c2ccc(NC(=S)Nc3ccc(F)cc3)cc2)s1 [CBK050037]	72%	22.8%	13.7%	98.2%	89.3%	93.2%	98.5%	26.5%	17.6%
O=C(Nc1ccc(F)cc1)c1[nH]c2ccccc2c1NS(=O)(=O)c1cc(Cl)sc1Cl [CBK050094]	151%	124%	118%	90%	96.8%	86.9%	126%	99.9%	62.7%
COc1ccc([C@@]23CC=C(N(Cc4ccccc4)C(=O)Nc4ccc(F)c(F)c4)C[C@@H]2N(C)CC3)cc1OC [CBK050179]	105%	86.7%	69.8%	93.3%	95%	112%	62.1%	80.2%	52.4%
O=S(=O)(Nc1ccc(C(F)(F)F)cc1Cl)c1cc(Br)c(Cl)s1 [CBK057196]	142%	108%	69.6%	90.4%	93.1%	88.2%	114%	75.1%	57.9%
Cc1cc(C)c2c(N)c(C(=O)Nc3ccc(Br)cc3)sc2n1 [CBK072019]	107%	95.1%	100%	97.9%	98.9%	106%	98.4%	59.7%	91%
COc1cccc(CNc2ccc(N3CCOCC3)cc2)c1OCc1ccccc1F [CBK074406]	135%	97.1%	65.4%	86.4%	83.8%	90.9%	130%	63.6%	41.5%
COc1ccc([C@@]23CC[C@@H](NC(=O)c4ccc(-c5ccccc5)cc4)CC2N(C)CC3)cc1OC (stereo partly drawn) [CBK074973T]	113%	78.4%	39.7%	93.9%	94.3%	87.1%	118%	93.3%	31.1%
CC(C)(C)c1cc(C(=O)Nc2ccncc2)n(Cc2ccc(Cl)cc2Cl)n1 [CBK107284]	116%	74.6%	24.2%	94.9%	94%	97.3%	117%	57.8%	39.7%
O=[N+]([O-])c1cc([N+](=O)[O-])c2cccnc2c1NNc1nncc2ccccc12 [CBK110409]	107%	69%	22.1%	93%	89.1%	86.6%	108%	63.9%	31%
Cc1ccc(C(=O)NCCCN2CCC3(CC2)OCCc2c3[nH]c3ccccc23)cc1 [CBK113485]	114%	80%	21.4%	86.4%	88%	78.1%	88.7%	33.7%	5.52%
CN(C)CCCNC(=O)Nc1cccc(-c2nc(-c3ccc(C#N)cc3)cnc2N)c1 [CBK116287]	102%	71.8%	14.2%	104%	89.1%	97.5%	116%	66.5%	4.68%
COC(=O)CCc1ccc(-c2cnc(N)c(-c3ccc(O)cc3)n2)cc1 [CBK122809]	122%	108%	93.5%	114%	118%	113%	92.1%	83.5%	80.2%
CCNC(=O)N1CC2(CCN(Cc3nc4ccccc4[nH]3)CC2)c2ccccc21 [CBK126693]	115%	120%	109%	100%	94.1%	96.7%	74.5%	89.8%	65%
Cn1c(=O)c2c(ncn2Cc2ccccc2)n(C)c1=O [CBK133402]	119%	115%	111%	111%	110%	109%	100%	51.9%	66.7%
CC(=O)Nc1ccc(-c2cccc(COC3CCN(C(=O)c4ccc(OC(C)C)cc4)CC3)c2)cc1 [CBK149485]	107%	30.6%	6.64%	89.4%	92.4%	93.9%	97.4%	32.5%	7.93%
O=C(NCCc1c[nH]c2ccc(Cl)cc12)c1ccc(Cl)cc1Br [CBK159755]	100%	71.3%	19.1%	89%	88.9%	93.1%	91%	79.9%	32.4%
Cc1cc(Br)ccc1C(=O)NCCc1c[nH]c2ccc(Cl)cc12 [CBK159771]	95.1%	57.5%	22.3%	109%	106%	108%	116%	67.5%	47.4%
CC(C)c1ccc(/C=C/C(=O)NCc2ccc(NS(C)(=O)=O)cc2)cc1 [CBK161512]	138%	96.2%	43.8%	101%	104%	94.9%	74.8%	59.3%	20.9%
CC(C)(C)c1ccc(N(C2CCNCC2)S(=O)(=O)c2cccc(C(F)(F)F)c2)cc1 [CBK165056T]	103%	77.9%	24.3%	99.8%	107%	45.6%	78%	50.5%	1%
O=C(OCCC1SC(NC2CC3C=CC2C3)=NC1=O)c1ccc(Cl)c([N+](=O)[O-])c1 (stereo not drawn) [CBK200060T]	140%	129%	103%	92.3%	96.8%	88.4%	132%	108%	68.7%
